Assay results: PubChem BioAssay (NCI)
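Protocol summary: plate cells (96-well), add compound at 5 concentrations, incubate 48 h, interpolate endpoints linearly. At the GI50, growth is halved. Definition used: TGI = concentration required for complete inhibition of growth.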

Tests used:
Experiment in all cases: NCI tumour cell line growth inhibition, 48 h
SF-268 CNS = tested on: SF-268 CNS
A498 renal = tested on: A498 renal
HS 578T breast = tested on: HS 578T breast
SW-620 colon = tested on: SW-620 colon
SF-295 CNS = tested on: SF-295 CNS
SNB-75 CNS = tested on: SNB-75 CNS
HOP-62 NSCLC = tested on: HOP-62 NSCLC
RPMI-8226 leukemia = tested on: RPMI-8226 leukemia
RXF 393 renal = tested on: RXF 393 renal
HCT-15 colon = tested on: HCT-15 colon
BT-549 breast = tested on: BT-549 breast
SNB-19 CNS = tested on: SNB-19 CNS
A549 NSCLC = tested on: A549 NSCLC
MDA-MB-231 breast = tested on: MDA-MB-231 breast
HCT-116 colon = tested on: HCT-116 colon
HCC-2998 colon = tested on: HCC-2998 colon
OVCAR-5 ovarian = tested on: OVCAR-5 ovarian
KM12 colon = tested on: KM12 colon
HOP-92 NSCLC = tested on: HOP-92 NSCLC
T-47D breast = tested on: T-47D breast
SK-MEL-5 melanoma = tested on: SK-MEL-5 melanoma
SK-MEL-2 melanoma = tested on: SK-MEL-2 melanoma
UACC-257 melanoma = tested on: UACC-257 melanoma
M14 melanoma = tested on: M14 melanoma
COLO 205 colon = tested on: COLO 205 colon
MALME-3M melanoma = tested on: MALME-3M melanoma
U251 CNS = tested on: U251 CNS
SK-MEL-28 melanoma = tested on: SK-MEL-28 melanoma
CAKI-1 renal = tested on: CAKI-1 renal
IGROV1 ovarian = tested on: IGROV1 ovarian
PC-3 prostate = tested on: PC-3 prostate
MOLT-4 leukemia = tested on: MOLT-4 leukemia
SK-OV-3 ovarian = tested on: SK-OV-3 ovarian
ACHN renal = tested on: ACHN renal
MCF7 breast = tested on: MCF7 breast
NCI-H460 lung = tested on: NCI-H460 lung
HT29 colon = tested on: HT29 colon
NCI-H522 lung = tested on: NCI-H522 lung
UO-31 renal = tested on: UO-31 renal
NCI-H226 lung = tested on: NCI-H226 lung
UACC-62 melanoma = tested on: UACC-62 melanoma
SF-539 CNS = tested on: SF-539 CNS
CCRF-CEM leukemia = tested on: CCRF-CEM leukemia
LOX IMVI melanoma = tested on: LOX IMVI melanoma
EKVX NSCLC = tested on: EKVX NSCLC
K-562 leukemia = tested on: K-562 leukemia
OVCAR-4 ovarian = tested on: OVCAR-4 ovarian
NCI-H23 lung = tested on: NCI-H23 lung
HL-60(TB) leukemia = tested on: HL-60(TB) leukemia
OVCAR-8 ovarian = tested on: OVCAR-8 ovarian
DU-145 prostate = tested on: DU-145 prostate
OVCAR-3 ovarian = tested on: OVCAR-3 ovarian
SN12C renal = tested on: SN12C renal
MDA-MB-435 = tested on: MDA-MB-435
TK-10 renal = tested on: TK-10 renal

In the case of NCCOc1ncccc1/C=C1\C2C=CC=CC2C2C=CC(F)=CC12 (stereo not given), the GI50 (SF-268 CNS) is reported as 1.41 µM, the TGI (SF-268 CNS) is reported as 11 µM and the GI50 (A498 renal) is reported as 1.53 µM. It also gave a TGI (A498 renal) of 3.49 µM, a GI50 (HS 578T breast) of 2.55 µM and a TGI (HS 578T breast) of 13.1 µM. The GI50 (SW-620 colon) was 1.07 µM, the TGI (SW-620 colon) was 2.66 µM and the GI50 (SF-295 CNS) was 0.467 µM. For the same compound, the TGI (SF-295 CNS) was 1.81 µM, the GI50 (SNB-75 CNS) was 1.5 µM and the TGI (SNB-75 CNS) was 5.67 µM. For the same compound, the GI50 (HOP-62 NSCLC) was 1.06 µM, the TGI (HOP-62 NSCLC) was 2.68 µM and the GI50 (RPMI-8226 leukemia) was 1.58 µM. It also gave a TGI (RPMI-8226 leukemia) of 3.85 µM, a GI50 (RXF 393 renal) of 1.57 µM and a TGI (RXF 393 renal) of 3.17 µM. For the same compound, the GI50 (HCT-15 colon) was 0.757 µM, the TGI (HCT-15 colon) was 2.28 µM and the GI50 (BT-549 breast) was 2.64 µM. It also gave a TGI (BT-549 breast) of 10.8 µM, a GI50 (SNB-19 CNS) of 0.816 µM and a TGI (SNB-19 CNS) of 14.1 µM. For the same compound, the GI50 (A549 NSCLC) was 0.268 µM, the TGI (A549 NSCLC) was 2.04 µM and the GI50 (MDA-MB-231 breast) was 1.64 µM. The TGI (MDA-MB-231 breast) was 3.26 µM, the GI50 (HCT-116 colon) was 1.13 µM and the TGI (HCT-116 colon) was 2.6 µM. It also gave a GI50 (HCC-2998 colon) of 1.25 µM, a TGI (HCC-2998 colon) of 2.57 µM and a GI50 (OVCAR-5 ovarian) of 1.69 µM. It also gave a TGI (OVCAR-5 ovarian) of 3.4 µM, a GI50 (KM12 colon) of 1.47 µM and a TGI (KM12 colon) of 2.97 µM. The GI50 (HOP-92 NSCLC) was 0.258 µM, the TGI (HOP-92 NSCLC) was 2.19 µM and the GI50 (T-47D breast) was 2.07 µM. The TGI (T-47D breast) was 6.15 µM, the GI50 (SK-MEL-5 melanoma) was 1.47 µM and the TGI (SK-MEL-5 melanoma) was 2.79 µM. The GI50 (SK-MEL-2 melanoma) was 2.03 µM, the TGI (SK-MEL-2 melanoma) was 4.36 µM and the GI50 (UACC-257 melanoma) was 1.76 µM. It also gave a TGI (UACC-257 melanoma) of 3.86 µM, a GI50 (M14 melanoma) of 1.35 µM and a TGI (M14 melanoma) of 3.05 µM. The GI50 (COLO 205 colon) was 1.11 µM, the TGI (COLO 205 colon) was 2.63 µM and the GI50 (MALME-3M melanoma) was 1.42 µM. For the same compound, the TGI (MALME-3M melanoma) was 3.17 µM, the GI50 (U251 CNS) was 0.622 µM and the TGI (U251 CNS) was 2.06 µM. The GI50 (SK-MEL-28 melanoma) was 1.51 µM, the TGI (SK-MEL-28 melanoma) was 2.9 µM and the GI50 (CAKI-1 renal) was 0.429 µM. The TGI (CAKI-1 renal) was 1.87 µM, the GI50 (IGROV1 ovarian) was 1.16 µM and the TGI (IGROV1 ovarian) was 2.47 µM. It also gave a GI50 (PC-3 prostate) of 1.15 µM, a TGI (PC-3 prostate) of 2.45 µM and a GI50 (MOLT-4 leukemia) of 0.232 µM. It also gave a TGI (MOLT-4 leukemia) of 1.1 µM, a GI50 (SK-OV-3 ovarian) of 0.735 µM and a TGI (SK-OV-3 ovarian) of 2.33 µM. For the same compound, the GI50 (ACHN renal) was 0.347 µM, the TGI (ACHN renal) was 1.4 µM and the GI50 (MCF7 breast) was 0.394 µM. The TGI (MCF7 breast) was 1.73 µM, the GI50 (NCI-H460 lung) was 0.283 µM and the TGI (NCI-H460 lung) was 1.46 µM. It also gave a GI50 (HT29 colon) of 1.45 µM, a TGI (HT29 colon) of 3.29 µM and a GI50 (NCI-H522 lung) of 1.69 µM. For the same compound, the TGI (NCI-H522 lung) was 4.09 µM, the GI50 (UO-31 renal) was 1.31 µM and the TGI (UO-31 renal) was 3.06 µM. For the same compound, the GI50 (NCI-H226 lung) was 1.02 µM, the TGI (NCI-H226 lung) was 2.47 µM and the GI50 (UACC-62 melanoma) was 1.36 µM. The TGI (UACC-62 melanoma) was 2.88 µM, the GI50 (SF-539 CNS) was 1.31 µM and the TGI (SF-539 CNS) was 2.61 µM. For the same compound, the GI50 (CCRF-CEM leukemia) was 0.26 µM, the TGI (CCRF-CEM leukemia) was 5.08 µM and the GI50 (LOX IMVI melanoma) was 0.583 µM. The TGI (LOX IMVI melanoma) was 1.96 µM, the GI50 (EKVX NSCLC) was 1.2 µM and the TGI (EKVX NSCLC) was 3.05 µM. It also gave a GI50 (K-562 leukemia) of 1.01 µM, a TGI (K-562 leukemia) of 3.13 µM and a GI50 (OVCAR-4 ovarian) of 2.7 µM. The TGI (OVCAR-4 ovarian) was 10.1 µM, the GI50 (NCI-H23 lung) was 0.666 µM and the TGI (NCI-H23 lung) was 3.01 µM. For the same compound, the GI50 (HL-60(TB) leukemia) was 0.334 µM, the TGI (HL-60(TB) leukemia) was 1.42 µM and the GI50 (OVCAR-8 ovarian) was 1.19 µM. For the same compound, the TGI (OVCAR-8 ovarian) was 3.48 µM, the GI50 (DU-145 prostate) was 0.531 µM and the TGI (DU-145 prostate) was 1.99 µM. The GI50 (OVCAR-3 ovarian) was 1.45 µM, the TGI (OVCAR-3 ovarian) was 2.77 µM and the GI50 (SN12C renal) was 0.333 µM. It also gave a TGI (SN12C renal) of 1.35 µM, a GI50 (MDA-MB-435) of 1.81 µM and a TGI (MDA-MB-435) of 3.35 µM. It also gave a GI50 (TK-10 renal) of 1.96 µM and a TGI (TK-10 renal) of 4.31 µM.
